{"source": "paper PMC7385626", "about": "(Scientific Reports, 2020)", "key": {"B. cereus DSM 4312": {"system": "B. cereus DSM 4312", "assay": "Disc diffusion assay", "type": "cell-based, Bacillus Cereus", "protocol": "(§1) Therefore, the pathogen bacterial flora and the opportunistic agents may be taken into consideration both in the management of cancer patients and in individual susceptibility to cancer. Indeed, dual acting factors with antimicrobial and antiproliferative potentials can result in improved therapeutic efficacy for cancer cell patients or reduced cancer predisposition. […]. In this study, 10 microbial cultures of this part, belonging to ten types of bacterial were used. The culture was grown in Mueller–Hinton Broth (Merck) for all the bacterial strains at 36 °C. Antimicrobial test was carried out by using disc-diffusion assay utilizing 100 µL of suspension with 10^8 CFU/mL of bacteria and 10^6 CFU/mL of yeast spread on Nutrient Agar and Potato Dextrose Agar, respectively. Also, the blank disc (Oxoid = 6 mm in diameter) was impregnated with 20 µL of each substance (105 µg/disc) and placed on the inoculated agar. Negative controls ([…]) were prepared using the same solvent (water) employed to dissolve each substance. […]. The inoculated plate was incubated at 36 °C for clinical bacterial strains. Antimicrobial activities were evaluated by obtaining the zone of inhibitory effect against the test organisms."}, "HT29": {"system": "HT29", "assay": "BrdU Cell Proliferation Assay (BCPA)", "type": "cell-based, human", "description": "(§2) The antiproliferative activities of Ag(I) molecules and the starting molecules of the parent molecules, N-bishydeten and [Ag(CN)2]^− compound, on cells, were monitored utilizing by the BrdU Cell Proliferation Assay (BCPA) (Fig. 6).\n(§3) The antiproliferative activity of the 2, 3, 4, [Ag(CN)2]^− and 5FU against various cell lines (HeLa ATCC CCL-2, C6 cells ATCC CCL-107, HT29 ATCC HTB-38, and Vero ATCC CCL-81) were preserved and maintained in Dulbecco’s modified eagle’s medium, supplemented with %2 antibiotic (Streptomycin-Penicillin) solution and 10% fetal bovine serum.\n(§4) The cell suspension including 5×10^3 cells in 100 µL was supplied into the well cell plates (96-well cell). The therapies of these cells with 2, 3, 4 and [Ag(CN)2]^− in DMSO (max 0.1% DMSO) and 5-Florouracil (5 FU) molecule in DMSO (max 0.1% DMSO) separately at concentration 0.25, 0.50, 1.00, 1.50, 2.00, 2.50, 3.75, and 5.00 µg/mL were carried out. The last volume was adapted to 200 µL by mixture and DMEM and also incubated for 24 h at 37°C with 5% CO2. The antiproliferative activities of the 2, 3, 4 and [Ag(CN)2]^− were determined with using BrdU Cell proliferation ELISA Kit conforming to manufacturer’s assay.\n(§5) IC50 values the concentration of a factor which required for other method of in vitro."}, "S. gallinarum": {"system": "S. gallinarum", "assay": "Disc diffusion assay", "type": "cell-based, Salmonella Gallinarum", "protocol": "as §1"}, "E. coli 111": {"system": "E. coli 111", "assay": "Disc diffusion assay", "type": "cell-based, Escherichia coli", "protocol": "as §1"}, "E. aerogenes 2924": {"system": "E. aerogenes 2924", "assay": "Disc diffusion assay", "type": "cell-based, Enterobacter Aerogenes", "protocol": "as §1"}, "[1]": {"system": "HeLa, HT29, C6 and Vero cells", "assay": "BrdU Cell Proliferation Assay, range over the cell lines", "type": "cell-based", "description": "as §2, §3, §4, §5"}, "BSA": {"biological_target": "BSA (Bos taurus, UniProt P02769)", "assay": "UV–Visible absorption titration, BSA binding constant", "design": "species or system Bovine", "description": "UV–Visible absorption spectroscopy technique was also used to study interactions between BSA and 1–4. […] The some results of [BSA]/(εa − εf) = [BSA]/(εb − εf) + 1/[Kb(εb − εf)] in Fig. 9, used and also obtained. The binding constants for the 1–4 were found as 2.4 ± 0.22 × 10^4 M^−1, 4.3 ± 0.29 × 10^4 M^−1, 3.4 ± 0.23 × 10^4 M^−1 and 4.8 ± 0.29 × 10^4 M^−1, respectively. In Fig. 9, the increase in BSA concentrations leads to a change in the absorption of the complexes resulting in hypochromism for 1 and 3 and hyperchromism for 2 and 4.\nTo obtain the interaction act of the molecules with calf thymus DNA and also to determine the binding constants (Kb) UV–Visible absorption spectroscopy method was utilized. Indeed, 2.5 mg calf thymus DNA in this part was dissolved in Tris–HCl buffer and stabile pending seven days in the refrigerator. The concentration level of calf thymus DNA was calculated spectrophotometrically assay at 260 nm. This method was done according to previous studies."}, "B. subtilis ATCC6633": {"system": "B. subtilis ATCC6633", "assay": "Disc diffusion assay", "type": "cell-based, Bacillus Subtilis", "protocol": "as §1"}, "HT29 cells": {"system": "HT29 cells", "assay": "TUNEL assay", "type": "cell-based, human", "protocol": "[…]. We have evaluated the apoptotic effect of the molecules on HT29 cells utilizing the TUNEL method as an immunohistological study to reveal their mechanism of action on cells. The apoptotic activity of the Ag(I) compounds was examined in human colon cancer cells, HT29. […]. […] […].\nFigure 8 Phase-contrast and Fluorescence and image of the HT29 cancer cell line examined by TUNEL assay. […].\nIn situ finding of apoptosis was conducted utilizing a TUNEL method kit conforming to the manufacturer’s mechanism. HT29 cells (30.000 cells/chamber slide section) were conveyed in poly-L-lysine covered chamber slide. […]. Finally, slide was gently washed with cold DPBS and added 4 % paraformaldehyde for fixation for 60 min at room temperature. Following incubation, the cells were blocked with freshly prepared 3 % H2O2 in methanol at room temperature. Then, the cells were exposed to permeabilized solution (0.1 % sodium citrate and 0.1 % Triton X-100) for 2 minutes on ice. At this stage in order to prepare a DNase I enzyme treated as positive control, 10 μl of DNase-I and 90 μl its buffer was added to slide and incubated at room temperature for 10 minutes. The compotent cell was transferred into TUNEL reaction mixture (50 μL/section) involving a TdT and fluorescein-dUTP mix for 1 h at 37 °C, in a humidified phase and protected from light. In the end of the process, the positive cell nuclei obtained a green fluorescent signal which visualized by a Leica fluorescent microscope."}}, "note": "Values joined by “and” are separate entries in the source; they are usually repeats but may differ in a detail not shown here. Identical values can stand only once.", "data": [{"substance": "[Cu(N-bishydeten)Ag3(CN)5] [Complex 2]", "values": [{"measurement": "inhibition zones, B. cereus DSM 4312", "setting": "B. cereus DSM 4312", "result": "30 ± 0.58", "unit": "mm"}, {"measurement": "IC50", "setting": "HT29", "result": "870 ± 90", "unit": "nM"}, {"measurement": "inhibition zones, S. gallinarum", "setting": "S. gallinarum", "result": "35 ± 1.0", "unit": "mm"}, {"measurement": "inhibition zones, E. coli 111", "setting": "E. coli 111", "result": "32 ± 0.0", "unit": "mm"}, {"measurement": "inhibition zones, E. aerogenes 2924", "setting": "E. aerogenes 2924", "result": "22 ± 1.0", "unit": "mm"}, {"measurement": "IC50", "setting": "[1]", "result": "870 to 3640", "unit": "nM"}, {"measurement": "binding constant with BSA", "setting": "BSA", "result": "4.3 ± 0.29 × 10^4 M^−1 and 4.3 x 10^4"}, {"measurement": "inhibition zones, B. subtilis ATCC6633", "setting": "B. subtilis ATCC6633", "result": "27 ± 0.58", "unit": "mm"}, {"measurement": "apoptosis by TUNEL", "setting": "HT29 cells", "result": "significantly triggered apoptosis"}]}, {"substance": "[Zn(N-bishydeten)Ag3(CN)5] [Complex 3]", "values": [{"measurement": "inhibition zones, B. cereus DSM 4312", "setting": "B. cereus DSM 4312", "result": "34 ± 0.0", "unit": "mm"}, {"measurement": "IC50", "setting": "HT29", "result": "2370 ± 320", "unit": "nM"}, {"measurement": "inhibition zones, S. gallinarum", "setting": "S. gallinarum", "result": "35 ± 0.58", "unit": "mm"}, {"measurement": "inhibition zones, E. coli 111", "setting": "E. coli 111", "result": "30 ± 0.58", "unit": "mm"}, {"measurement": "inhibition zones, E. aerogenes 2924", "setting": "E. aerogenes 2924", "result": "20 ± 1.0", "unit": "mm"}, {"measurement": "IC50", "setting": "[1]", "result": "2370 to 3340", "unit": "nM"}, {"measurement": "binding constant with BSA", "setting": "BSA", "result": "3.4 ± 0.23 × 10^4 M^−1 and 3.4 x 10^4"}, {"measurement": "inhibition zones, B. subtilis ATCC6633", "setting": "B. subtilis ATCC6633", "result": "31 ± 1.0", "unit": "mm"}, {"measurement": "apoptosis by TUNEL", "setting": "HT29 cells", "result": "significantly triggered apoptosis"}]}, {"substance": "[Cd(N-bishydeten)]4[Ag(CN)2]8[Ag(CN)]2 [Complex 4]", "values": [{"measurement": "inhibition zones, B. cereus DSM 4312", "setting": "B. cereus DSM 4312", "result": "36 ± 1.0", "unit": "mm"}, {"measurement": "IC50", "setting": "HT29", "result": "480 ± 80", "unit": "nM"}, {"measurement": "inhibition zones, S. gallinarum", "setting": "S. gallinarum", "result": "37 ± 1.0", "unit": "mm"}, {"measurement": "inhibition zones, E. coli 111", "setting": "E. coli 111", "result": "29 ± 0.58", "unit": "mm"}, {"measurement": "inhibition zones, E. aerogenes 2924", "setting": "E. aerogenes 2924", "result": "25 ± 1.0", "unit": "mm"}, {"measurement": "IC50", "setting": "[1]", "result": "480 to 630", "unit": "nM"}, {"measurement": "binding constant with BSA", "setting": "BSA", "result": "4.8 ± 0.29 × 10^4 M^−1 and 4.8 x 10^4"}, {"measurement": "inhibition zones, B. subtilis ATCC6633", "setting": "B. subtilis ATCC6633", "result": "34 ± 0.58", "unit": "mm"}, {"measurement": "apoptosis by TUNEL", "setting": "HT29 cells", "result": "significantly triggered apoptosis"}]}]}
